Molecular target: T1, mutant B-RAF (Homo sapiens, UniProt P15056, V600E)
T1 construct: purchased Upstate (Charlottesville, Va.)
Experiment: RAF biochemical assay (MEK-1 phosphorylation, anti-phospho MEK1/2 detection)
Conditions: for inhibition at 10 µM: read-out: Mutant B-RAF % inhibition; for IC50: read-out: Mutant B-RAF IC50
In short: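 Detection is by ELISA: after a 30 min room-temperature reaction, plate-captured GST-MEK-1 is probed with anti-phospho MEK1/2, then an AP-tagged secondary antibody with fluorescent Attophos read-out.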

T1 sequence (P15056 whole entry V600E): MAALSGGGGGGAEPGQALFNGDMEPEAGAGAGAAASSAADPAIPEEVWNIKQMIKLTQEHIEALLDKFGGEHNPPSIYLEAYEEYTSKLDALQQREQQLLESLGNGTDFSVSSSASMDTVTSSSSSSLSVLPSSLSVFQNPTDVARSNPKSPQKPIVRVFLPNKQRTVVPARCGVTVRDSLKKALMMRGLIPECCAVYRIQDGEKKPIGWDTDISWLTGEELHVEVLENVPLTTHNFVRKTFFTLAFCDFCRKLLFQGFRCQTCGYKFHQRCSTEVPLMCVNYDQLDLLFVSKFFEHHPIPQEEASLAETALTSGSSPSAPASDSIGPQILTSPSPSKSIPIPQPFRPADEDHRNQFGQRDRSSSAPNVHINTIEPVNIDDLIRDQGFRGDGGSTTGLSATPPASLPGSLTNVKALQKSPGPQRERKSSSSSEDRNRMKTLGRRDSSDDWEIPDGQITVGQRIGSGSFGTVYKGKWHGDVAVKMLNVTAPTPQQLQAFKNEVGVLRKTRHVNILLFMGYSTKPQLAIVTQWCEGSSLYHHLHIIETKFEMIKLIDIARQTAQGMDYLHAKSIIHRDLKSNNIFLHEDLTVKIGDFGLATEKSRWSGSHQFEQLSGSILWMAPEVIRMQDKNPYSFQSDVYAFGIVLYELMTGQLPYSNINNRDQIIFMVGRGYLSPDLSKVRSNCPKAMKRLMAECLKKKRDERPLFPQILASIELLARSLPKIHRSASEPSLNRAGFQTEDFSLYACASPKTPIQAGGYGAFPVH

`N#Cc1ccc(S(=O)(=O)N2CCC(Nc3nccc(-c4c(-c5ccc(F)cc5)nc5occn45)n3)CC2)cc1` [Example 240, 4-{[4-({4-[6-(4-fluorophenyl)imidazo[2,1-b][1,3]oxazol-5-yl]pyrimidin-2-yl}amino)piperidin-1-yl]sulfonyl}benzonitrile] gave an inhibition at 10 µM of 44%.

With `Cc1cn2c(-c3ccnc(NC4CCN(C(=O)NCc5ccccc5)CC4)n3)c(-c3ccc(F)cc3)nc2s1` [Example 241, N-benzyl-4-({4-[6-(4-fluorophenyl)-2-methylimidazo[2,1-b][1,3]thiazol-5-yl]pyrimidin-2-yl}amino)piperidine-1-carboxamide] the IC50 was 2530 nM.

`Cc1cn2c(-c3ccnc(NC4CCN(C(=O)NCc5ccco5)CC4)n3)c(-c3ccc(F)cc3)nc2s1` [Example 242, 4-({4-[6-(4-fluorophenyl)-2-methylimidazo[2,1-b][1,3]thiazol-5-yl]pyrimidin-2-yl}amino)-N-(2-furylmethyl)piperidine-1-carboxamide] was tested, and the inhibition at 10 µM was 67%.

`O=C(NCc1ccco1)N1CCC(Nc2nccc(-c3c(-c4ccc(F)c(F)c4)nc4sccn34)n2)CC1` [Example 243, 4-({4-[6-(3,4-difluorophenyl)imidazo[2,1-b][1,3]thiazol-5-yl]pyrimidin-2-yl}amino)-N-(2-furylmethyl)piperidine-1-carboxamide] showed an inhibition at 10 µM of 76%.

`c1ccc2cc(-c3nc4sccn4c3-c3ccnc(NC4CCNCC4)n3)ccc2c1` [Example 244, 4-[6-(2-naphthyl)imidazo[2,1-b][1,3]thiazol-5-yl]-N-piperidin-4-ylpyrimidin-2-amine] gave an inhibition at 10 µM of 47%.

For `COc1cccc(-c2nc3sccn3c2-c2ccnc(NC3CCN(C(=O)Cc4ccc(N(C)C)cc4)CC3)n2)c1` [Example 245, N-(1-{[4-(dimethylamino)phenyl]acetyl}piperidin-4-yl)-4-[6-(3-methoxyphenyl)imidazo[2,1-b][1,3]thiazol-5-yl]pyrimidin-2-amine], the IC50 was 2460 nM.

In the case of `Cc1ccc(-c2nc3scc(C)n3c2-c2ccnc(NC3CCNCC3)n2)cc1` [Example 246, 4-[3-methyl-6-(4-methylphenyl)imidazo[2,1-b][1,3]thiazol-5-yl]-N-piperidin-4-ylpyrimidin-2-amine], the IC50 is reported as greater than 10000 nM.

`O=[N+]([O-])c1ccc(-c2nc3sccn3c2-c2ccnc(NC3CCNCC3)n2)cc1` [Example 247, 4-[6-(4-nitrophenyl)imidazo[2,1-b][1,3]thiazol-5-yl]-N-piperidin-4-ylpyrimidin-2-amine] was tested, and the inhibition at 2 µM (@ 2 uM) was 9%.

With `Cc1nc(S(=O)(=O)N2CCC(Nc3nccc(-c4c(-c5ccc(F)cc5)nc5occn45)n3)CC2)cn1C` [Example 248, N-{1-[(1,2-dimethyl-1H-imidazol-4-yl)sulfonyl]piperidin-4-yl}-4-[6-(4-fluorophenyl)imidazo[2,1-b][1,3]oxazol-5-yl]pyrimidin-2-amine] the IC50 was 931 nM.

`c1cc(-c2c(-c3ccc4c(c3)OCCO4)nc3sccn23)nc(NC2CCNCC2)n1` [Example 249, 4-[6-(2,3-dihydro-1,4-benzodioxin-6-yl)imidazo[2,1-b][1,3]thiazol-5-yl]-N-piperidin-4-ylpyrimidin-2-amine] gave an inhibition at 10 µM of 58%.

`c1ccc(-c2ccc(-c3nc4sccn4c3-c3ccnc(NC4CCNCC4)n3)cc2)cc1` [Example 250, 4-(6-biphenyl-4-ylimidazo[2,1-b][1,3]thiazol-5-yl)-N-piperidin-4-ylpyrimidin-2-amine] showed an inhibition at 3 µM (@ 3 uM) of 2%.

`O=C(NCc1ccccc1)N1CCC(Nc2nccc(-c3c(-c4ccc(F)c(F)c4)nc4sccn34)n2)CC1` [Example 251, N-benzyl-4-({4-[6-(3,4-difluorophenyl)imidazo[2,1-b][1,3]thiazol-5-yl]pyrimidin-2-yl}amino)piperidine-1-carboxamide] was tested, and the inhibition at 10 µM was 63%.

For `Cc1ccc(-c2nc3scc(C)n3c2-c2ccnc(NC3CCN(C(=O)Nc4ccc(N(C)C)cc4)CC3)n2)cc1` [Example 252, N-[4-(dimethylamino)phenyl]-4-({4-[3-methyl-6-(4-methylphenyl)imidazo[2,1-b][1,3]thiazol-5-yl]pyrimidin-2-yl}amino)piperidine-1-carboxamide], the IC50 was greater than 3000 nM.

Work on `CN(C)c1ccc(NC(=O)N2CCC(Nc3nccc(-c4c(-c5ccc([N+](=O)[O-])cc5)nc5sccn45)n3)CC2)cc1` [Example 253, N-[4-(dimethylamino)phenyl]-4-({4-[6-(4-nitrophenyl)imidazo[2,1-b][1,3]thiazol-5-yl]pyrimid-in-2-yl}amino)piperidine-1-carboxamide] yielded an IC50 greater than 3000 nM.

In the case of `CN(C)c1ccc(NC(=O)N2CCC(Nc3nccc(-c4c(-c5ccc(-c6ccccc6)cc5)nc5sccn45)n3)CC2)cc1` [Example 254, 4-{[4-(6-biphenyl-4-ylimidazo[2,1-b][1,3]thiazol-5-yl)pyri-midin-2-yl]amino)-N-[4-(di-methylamino)phenyl]piperidine-1-carboxamide], the IC50 is reported as greater than 3000 nM.

In the case of `O=S(=O)(c1ccc(Cl)cc1)N1CCC(Nc2nccc(-c3c(-c4ccc(F)cc4)nc4sccn34)n2)CC1` [Example 255, N-{1-[(4-chlorophenyl)sulfonyl]piperidin-4-yl}-4-[6-(4-fluorophenyl)imidazo[2,1-b][1,3]thiazol-5-yl]pyrimidin-2-amine], the IC50 is reported as 696 nM.

Molecule `NC(=O)N1CCC(Nc2nccc(-c3c(-c4ccc(F)cc4)nc4occn34)n2)CC1` [Example 256, 4-({4-[6-(4-fluorophenyl)imidazo[2,1-b][1,3]oxazol-5-yl]pyrimidin-2-yl}amino)piperidine-1-carboxamide] has an IC50 greater than 1000 nM.

`Cc1cn2c(-c3ccnc(NC4CCN(S(=O)(=O)c5ccc(Cl)cc5)CC4)n3)c(-c3ccc(F)cc3)nc2s1` [Example 257, N-{1-[(4-chlorophenyl)sulfonyl]piperidin-4-yl}-4-[6-(4-fluorophenyl)-2-methylimidazo[2,1-b][1,3]thiazol-5-yl]pyrimidin-2-amine] gave an IC50 of 73 nM.

`Cc1cn2c(-c3ccnc(NC4CCN(S(=O)(=O)c5ccc(C(=O)O)cc5)CC4)n3)c(-c3ccc(F)cc3)nc2s1` [Example 258, 4-{[4-({4-[6-(4-fluorophenyl)-2-methylimidazo[2,1-b][1,3]thiazol-5-yl]pyrimidin-2-yl}amino)piperidin-1-yl]sulfonyl}benzoic acid] gave an IC50 of 322 nM.

`CC(=O)Nc1ccc(-c2nc3sccn3c2-c2ccnc(NC3CCN(S(=O)(=O)c4ccc(Cl)cc4)CC3)n2)cc1` [Example 259, N-(4-{5-[2-({1-[(4-chlorophenyl)sulfonyl]piperidin-4-yl}amino)pyrimidin-4-yl]imidazo[2,1-b][1,3]thiazol-6-yl}phenyl)acetamide] showed an IC50 greater than 3000 nM.

`O=S(=O)(c1ccc(F)cc1)N1CCC(Nc2nccc(-c3c(-c4ccc5c(c4)OCCO5)nc4sccn34)n2)CC1` [Example 260, 4-[6-(2,3-dihydro-1,4-benzodioxin-6-yl)imidazo[2,1-b][1,3]thiazol-5-yl]-N-{1-[(4-fluorophenyl)sulfonyl]piperidin-4-yl}pyrimidin-2-amine] gave an IC50 of 186 nM.

In the case of `COc1ccccc1-c1nc2sccn2c1-c1ccnc(NC2CCNCC2)n1` [Example 261, 4-[6-(2-methoxyphenyl)imidazo[2,1-b][1,3]thiazol-5-yl]-N-piperidin-4-ylpyrimidin-2-amine], the IC50 is reported as greater than 3000 nM.

For `COc1ccc(-c2nc3sccn3c2-c2ccnc(NC3CCN(S(=O)(=O)c4ccc(Cl)cc4)CC3)n2)cc1` [Example 262, N-{1-[(4-chlorophenyl)sulfonyl]piperidin-4-yl}-4-[6-(4-methoxyphenyl)imidazo[2,1-b][1,3]thiazol-5-yl]pyrimidin-2-amine], the IC50 was greater than 3000 nM.

`COc1cccc(-c2nc3sccn3c2-c2ccnc(NC3CCN(S(=O)(=O)c4ccc(Cl)cc4)CC3)n2)c1` [Example 263, N-{1-[(4-chlorophenyl)sulfonyl]piperidin-4-yl}-4-[6-(3-methoxyphenyl)imidazo[2,1-b][1,3]thiazol-5-yl]pyrimidin-2-amine] showed an IC50 greater than 5000 nM.

`O=S(=O)(c1ccc(Cl)cc1)N1CCC(Nc2nccc(-c3c(-c4ccc(O)cc4)nc4sccn34)n2)CC1` [Example 264, 4-{5-[2-({1-[(4-chlorophenyl)sulfonyl]piperidin-4-yl}amino)pyrimidin-4-yl]imidazo[2,1-b][1,3]thiazol-6-yl}phenol] was tested, and the inhibition at 10 µM was 5%.

For `O=S(=O)(c1ccc(Cl)cc1)N1CCC(Nc2nccc(-c3c(-c4ccc(F)c(F)c4)nc4sccn34)n2)CC1` [Example 265, N-{1-[(4-chlorophenyl)sulfonyl]piperidin-4-yl}-4-[6-(3,4-difluorophenyl)imidazo[2,1-b][1,3]thiazol-5-yl]pyrimidin-2-amine], the IC50 was greater than 3000 nM.

For `O=S(=O)(c1ccc(F)cc1)N1CCC(Nc2nccc(-c3c(-c4cccc(O)c4)nc4sccn34)n2)CC1` [Example 266, 3-{5-[2-({1-[(4-fluorophenyl)sulfonyl]piperidin-4-yl}amino)pyrimidin-4-yl]imidazo[2,1-b][1,3]thiazol-6-yl}phenol], the IC50 was 29 nM.

Work on `N#Cc1cccc(-c2nc3sccn3c2-c2ccnc(NC3CCN(S(=O)(=O)c4ccc(Cl)cc4)CC3)n2)c1` [Example 269, 3-{5-[2-({1-[(4-chlorophenyl)sulfonyl]piperidin-4-yl)amino)pyrimidin-4-yl]imidazo[2,1-b][1,3]thiazol-6-yl}benzonitrile] yielded an IC50 of 1630 nM.

`COc1cccc(-c2nc3sccn3c2-c2ccnc(NC3CCN(S(=O)(=O)c4ccc(CCC(=O)O)cc4)CC3)n2)c1` [Example 270, 3-(4-{[4-({4-[6-(3-methoxyphenyl)imidazo[2,1-b][1,3]thiazol-5-yl]pyrimidin-2-yl}amino)piperidin-1-yl]sulfonyl}phenyl)propanoic acid] gave an IC50 of 316 nM.

Molecule `N#Cc1cccc(-c2nc3sccn3c2-c2ccnc(NC3CCNCC3)n2)c1` [Example 271, 3-{5-[2-(piperidin-4-ylamino)pyrimidin-4-yl]imidazo[2,1-b][1,3]thiazol-6-yl}benzonitrile] has an inhibition at 10 µM of 58%.

In the case of `COC(=O)CCc1ccc(S(=O)(=O)N2CCC(Nc3nccc(-c4c(-c5cccc(O)c5)nc5sccn45)n3)CC2)cc1` [Example 272, methyl 3-(4-{[4-({4-[6-(3-hydroxyphenyl)imidazo[2,1-b][1,3]thiazol-5-yl]pyrimidin-2-yl}amino)piperidin-1-yl]sulfonyl}phenyl)propanoate], the IC50 is reported as 10 nM.
